{
  "source": "paper PMC4769034",
  "about": "(Journal of medicinal chemistry, 2015)",
  "key": {"EPAC2": {"molecular_target": "T1, EPAC2 (Mus musculus, UniProt Q9EQZ6)", "T1 sequence (Q9EQZ6 1-993 isoform Q9EQZ6-3)": "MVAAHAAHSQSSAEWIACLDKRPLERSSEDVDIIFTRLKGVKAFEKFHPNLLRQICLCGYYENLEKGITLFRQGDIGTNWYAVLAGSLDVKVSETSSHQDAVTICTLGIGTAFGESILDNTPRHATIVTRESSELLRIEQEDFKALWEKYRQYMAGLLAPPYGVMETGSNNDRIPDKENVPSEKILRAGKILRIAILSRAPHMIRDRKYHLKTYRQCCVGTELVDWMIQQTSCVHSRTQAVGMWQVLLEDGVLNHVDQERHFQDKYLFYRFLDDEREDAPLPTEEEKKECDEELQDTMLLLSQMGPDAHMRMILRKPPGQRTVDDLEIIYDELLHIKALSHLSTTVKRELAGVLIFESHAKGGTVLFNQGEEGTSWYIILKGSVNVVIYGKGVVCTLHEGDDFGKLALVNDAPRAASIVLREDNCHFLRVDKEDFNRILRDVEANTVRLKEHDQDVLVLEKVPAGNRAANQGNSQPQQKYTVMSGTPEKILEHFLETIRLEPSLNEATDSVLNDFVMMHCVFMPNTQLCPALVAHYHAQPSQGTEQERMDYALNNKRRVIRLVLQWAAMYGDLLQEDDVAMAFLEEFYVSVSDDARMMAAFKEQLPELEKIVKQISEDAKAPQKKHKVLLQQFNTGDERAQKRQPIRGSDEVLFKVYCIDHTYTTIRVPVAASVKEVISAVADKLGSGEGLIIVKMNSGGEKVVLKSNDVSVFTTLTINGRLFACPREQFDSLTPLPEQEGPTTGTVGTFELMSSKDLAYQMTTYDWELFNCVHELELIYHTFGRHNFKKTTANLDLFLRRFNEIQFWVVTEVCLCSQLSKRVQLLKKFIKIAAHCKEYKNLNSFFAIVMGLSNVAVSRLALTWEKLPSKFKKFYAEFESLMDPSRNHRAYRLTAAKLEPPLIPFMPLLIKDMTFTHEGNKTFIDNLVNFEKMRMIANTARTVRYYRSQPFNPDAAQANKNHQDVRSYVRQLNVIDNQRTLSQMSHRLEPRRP", "experiment": "8-NBD-cAMP competition assay", "settings": "for EPAC2 binding activity in words: 8-NBD-cAMP competition; for fold loss of EPAC2 binding affinity / inhibitory activity in comparison with 1 / fold more potent than parent compound 1: vs compound 1; for fold increase in potency compared to nonsubstituted analogue 8: vs compound 8"}, "[1]": {"experiment": "Solubility in water by HPLC analysis", "settings": "water"}, "EPAC1": {"molecular_target": "T2, EPAC1 (Homo sapiens, UniProt O95398)", "T2 sequence (O95398 1-881 isoform O95398-3)": "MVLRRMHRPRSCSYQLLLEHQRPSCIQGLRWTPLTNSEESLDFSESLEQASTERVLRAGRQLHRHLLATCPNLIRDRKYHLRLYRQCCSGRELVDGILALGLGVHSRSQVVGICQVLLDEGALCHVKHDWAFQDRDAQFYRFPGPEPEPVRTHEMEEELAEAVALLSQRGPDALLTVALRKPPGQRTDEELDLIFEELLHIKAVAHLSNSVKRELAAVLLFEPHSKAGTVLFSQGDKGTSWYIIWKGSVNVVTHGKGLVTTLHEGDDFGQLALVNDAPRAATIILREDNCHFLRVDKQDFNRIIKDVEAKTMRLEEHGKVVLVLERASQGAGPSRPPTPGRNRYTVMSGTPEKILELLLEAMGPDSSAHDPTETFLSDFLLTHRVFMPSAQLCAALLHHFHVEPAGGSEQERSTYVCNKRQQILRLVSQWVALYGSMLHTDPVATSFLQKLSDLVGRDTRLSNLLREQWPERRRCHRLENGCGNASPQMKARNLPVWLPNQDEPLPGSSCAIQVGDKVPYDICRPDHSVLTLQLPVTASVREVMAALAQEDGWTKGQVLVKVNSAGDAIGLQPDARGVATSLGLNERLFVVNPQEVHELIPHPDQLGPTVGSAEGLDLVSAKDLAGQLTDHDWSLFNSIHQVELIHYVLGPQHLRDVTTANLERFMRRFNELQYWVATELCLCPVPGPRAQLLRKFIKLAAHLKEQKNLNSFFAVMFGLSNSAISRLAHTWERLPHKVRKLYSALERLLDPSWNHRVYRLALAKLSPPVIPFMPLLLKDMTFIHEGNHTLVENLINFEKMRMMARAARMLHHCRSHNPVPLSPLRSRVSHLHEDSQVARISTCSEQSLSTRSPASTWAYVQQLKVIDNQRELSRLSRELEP", "experiment": "In vitro EPAC1 GEF activity assay", "format": "biochemical"}},
  "note": "“Also recorded” adds a separate entry of the source.",
  "data": [
    {"smiles": "CC(C)(C)c1cc(NC(=O)c2cccc(Cl)c2)no1", "note": "[Compound 53, N-(5-(tert-Butyl)isoxazol-3-yl)-3-chlorobenzamide]", "values": [
      {"measurement": "EPAC2 binding activity in words", "setting": "EPAC2", "result": "entire loss of potency; also recorded: no significant activity"}
    ]},
    {"smiles": "Cc1cc(NC(=O)C(C#N)=NNc2cccc(Cl)c2)no1", "note": "[Compound 52, 2-[(3-Chlorophenyl)-hydrazono]-2-cyano-N-(5-methyl-isoxazol-3-yl)acetamide]", "values": [
      {"measurement": "EPAC2 binding activity in words", "setting": "EPAC2", "result": "completely inactive"}
    ]},
    {"smiles": "CC(C)(C)c1cc(C(=O)Nc2cccc(Cl)c2)no1", "note": "[Compound 55, 5-tert-Butyl-N-(3-chlorophenyl)isoxazole-3-carboxamide]", "values": [
      {"measurement": "EPAC2 binding activity in words", "setting": "EPAC2", "result": "entire loss of potency; also recorded: no significant activity"}
    ]},
    {"smiles": "CC(C)(C)c1cc(-c2n[nH]c(N)c2/N=N/c2cccc(Cl)c2)no1", "note": "[Compound 57, 3-(5-tert-Butylisoxazol-3-yl)-4-((3-chlorophenyl)diazenyl)-1H-pyrazol-5-amine]", "values": [
      {"measurement": "EPAC2 binding activity in words", "setting": "EPAC2", "result": "entire loss of potency; also recorded: no significant activity"}
    ]},
    {"smiles": "CC(C)(C)c1cc(C(=O)/C(C#N)=N/Nc2ccc(F)c(Cl)c2)no1", "note": "[Compound 31, 2-(5-tert-Butylisoxazol-3-yl)-N′-(3-chloro-4-fluorophenyl)-2-oxoacetohydrazonoyl Cyanide]", "values": [
      {"measurement": "solubility at 24 h", "setting": "[1]", "result": "82.6 ± 3.6", "unit": "µg/mL"}
    ]},
    {"smiles": "CC(C)(C)c1cc(C(=O)/C(C#N)=N/Nc2ccc(Cl)cc2)no1", "note": "[Compound 10, 2-(5-tert-Butylisoxazol-3-yl)-N′-(4-chlorophenyl)-2-oxoacetohydrazonoyl Cyanide]", "values": [
      {"measurement": "fold loss of EPAC2 binding affinity / inhibitory activity in comparison with 1", "setting": "EPAC2", "result": 3, "unit": "fold"}
    ]},
    {"smiles": "Cc1cccc(N/N=C(\\C#N)C(=O)c2cc(C(C)(C)C)on2)c1", "note": "[Compound 20, 2-(5-tert-Butylisoxazol-3-yl)-2-oxo-N′-m-tolylacetohydrazonoyl Cyanide]", "values": [
      {"measurement": "fold increase in potency compared to nonsubstituted analogue 8", "setting": "EPAC2", "result": "about 2 fold"}
    ]},
    {"smiles": "CC(C)(C)c1cc(C(=O)/C(C#N)=N/Nc2ccc(Cl)c(Cl)c2)no1", "note": "[Compound 23, 2-(5-tert-Butylisoxazol-3-yl)-N′-(3,4-dichlorophenyl)-2-oxoacetohydrazonoyl Cyanide]", "values": [
      {"measurement": "fold more potent than parent compound 1", "setting": "EPAC2", "result": "~3", "unit": "fold"}
    ]},
    {"smiles": "CC(C)(C)c1cc(C(=O)/C(C#N)=N/Nc2cccc(C(F)(F)F)c2)no1", "note": "[Compound 13, 2-(5-tert-Butylisoxazol-3-yl)-N′-(3-trifluoromethylphenyl)-2-oxoacetohydrazonoyl Cyanide]", "values": [
      {"measurement": "fold increase in potency compared to nonsubstituted analogue 8", "setting": "EPAC2", "result": "approximately 5 fold"}
    ]},
    {"smiles": "CC(C)(C)c1cc(C(=O)/C(C#N)=N/Nc2cccc([N+](=O)[O-])c2)no1", "note": "[Compound 14, 2-(5-tert-Butylisoxazol-3-yl)-N′-(3-nitrophenyl)-2-oxoacetohydrazonoyl Cyanide]", "values": [
      {"measurement": "fold increase in potency compared to nonsubstituted analogue 8", "setting": "EPAC2", "result": "about 2 fold"}
    ]},
    {"smiles": "CC(C)(C)c1cc(NC(=O)C(C#N)=NNc2cccc(Cl)c2)no1", "note": "[Compound 51, N-(5-tert-Butyl-isoxazol-3-yl)-2-[(3-chlorophenyl)-hydrazono]-2-cyanoacetamide]", "values": [
      {"measurement": "EPAC2 binding activity in words", "setting": "EPAC2", "result": "completely inactive"}
    ]},
    {"smiles": "CC(C)(C)c1cc(C(=O)/C(C#N)=N/Nc2cc(F)c(F)c(F)c2)no1", "note": "[Compound 36, 2-(5-tert-Butylisoxazol-3-yl)-2-oxo-N′-(3,4,5-trifluorophenyl)acetohydrazonoyl Cyanide]", "values": [
      {"measurement": "solubility at 24 h", "setting": "[1]", "result": "75.7 ± 7.1", "unit": "µg/mL"}
    ]},
    {"smiles": "CC(C)(C)c1cc(C(=O)/C(C#N)=N/Nc2ccccc2Cl)no1", "note": "[Compound 9, 2-(5-tert-Butylisoxazol-3-yl)-N′-(2-chlorophenyl)-2-oxoacetohydrazonoyl Cyanide]", "values": [
      {"measurement": "fold loss of EPAC2 binding affinity / inhibitory activity in comparison with 1", "setting": "EPAC2", "result": 3, "unit": "fold"}
    ]},
    {"smiles": "CC(C)(C)c1cc(C(=O)N/N=C/c2cccc(Cl)c2)no1", "note": "[Compound 56, (E)-5-(tert-Butyl)-N′-(3-chlorobenzylidene)isoxazole-3-carbohydrazide]", "values": [
      {"measurement": "EPAC2 binding activity in words", "setting": "EPAC2", "result": "entire loss of potency; also recorded: no significant activity"}
    ]},
    {"smiles": "CC(C)(C)c1cc(C(=O)/C(C#N)=N/Nc2cc(Cl)cc(Cl)c2)no1", "note": "[Compound 22, 2-(5-tert-Butylisoxazol-3-yl)-N′-(3,5-dichlorophenyl)-2-oxoacetohydrazonoyl Cyanide]", "values": [
      {"measurement": "fold more potent than parent compound 1", "setting": "EPAC2", "result": "about 5 fold"},
      {"measurement": "IC50", "setting": "EPAC1", "result": "< 5", "unit": "µM"}
    ]},
    {"smiles": "CC(C)(C)c1cc(C(=O)/C(C#N)=N/Nc2cc(Cl)c(Cl)c(Cl)c2)no1", "note": "[Compound 35, 2-(5-tert-Butylisoxazol-3-yl)-2-oxo-N′-(3,4,5-trichlorophenyl)acetohydrazonoyl Cyanide]", "values": [
      {"measurement": "solubility at 24 h", "setting": "[1]", "result": "12.7 ± 1", "unit": "µg/mL"}
    ]},
    {"smiles": "COc1cccc(N/N=C(\\C#N)C(=O)c2cc(C(C)(C)C)on2)c1", "note": "[Compound 18, 2-(5-tert-Butylisoxazol-3-yl)-N′-(3-methoxyphenyl)-2-oxoacetohydrazonoyl Cyanide]", "values": [
      {"measurement": "EPAC2 binding activity in words", "setting": "EPAC2", "result": "significant loss of activity"}
    ]},
    {"smiles": "CC(C)(C)c1cc(C(=O)/C(C#N)=N/Nc2cccc(CO)c2)no1", "note": "[Compound 19, 2-(5-tert-Butylisoxazol-3-yl)-N′-(3-(hydroxymethyl)phenyl)-2-oxoacetohydrazonoyl Cyanide]", "values": [
      {"measurement": "EPAC2 binding activity in words", "setting": "EPAC2", "result": "significant loss of activity"}
    ]},
    {"smiles": "N#C/C(=N\\Nc1cccc(Cl)c1)C(=O)c1cc(-c2ccccc2)on1", "note": "[Compound 41, N′-(3-Chlorophenyl)-2-oxo-2-(5-phenylisoxazol-3-yl)-acetohydrazonoyl Cyanide]", "values": [
      {"measurement": "EPAC2 binding activity in words", "setting": "EPAC2", "result": "totally inactive"}
    ]},
    {"smiles": "CC(C)(C)c1cc(C(=O)/C(C#N)=N/Nc2cccc(F)c2)no1", "note": "[Compound 12, 2-(5-tert-Butylisoxazol-3-yl)-N′-(3-fluorophenyl)-2-oxoacetohydrazonoyl Cyanide]", "values": [
      {"measurement": "fold increase in potency compared to nonsubstituted analogue 8", "setting": "EPAC2", "result": "3–4 fold"}
    ]},
    {"smiles": "CC(=O)c1cccc(N/N=C(\\C#N)C(=O)c2cc(C(C)(C)C)on2)c1", "note": "[Compound 17, N′-(3-Acetylphenyl)-2-(5-tert-butylisoxazol-3-yl)-2-oxoacetohydrazonoyl Cyanide]", "values": [
      {"measurement": "EPAC2 binding activity in words", "setting": "EPAC2", "result": "dramatic loss of activity"}
    ]},
    {"smiles": "N#C/C(=N\\Nc1cc(Cl)c(Cl)c(Cl)c1)C(=O)c1cc(-c2ccccc2)on1", "note": "[Compound 48, N′-(3,4,5-Trichlorophenyl)-2-oxo-2-(5-phenylisoxazol-3-yl)-acetohydrazonoyl Cyanide]", "values": [
      {"measurement": "EPAC2 binding activity in words", "setting": "EPAC2", "result": "totally inactive"}
    ]},
    {"smiles": "N#C/C(=N\\Nc1cc(Cl)c(Cl)c(Cl)c1)C(=O)c1cc(C2CCCCC2)on1", "note": "[Compound 47, 2-(5-Cyclohexylisoxazol-3-yl)-2-oxo-N′-(3,4,5-trichlorophenyl)acetohydrazonoyl Cyanide]", "values": [
      {"measurement": "solubility at 24 h", "setting": "[1]", "result": "10.1 ± 0.79", "unit": "µg/mL"}
    ]},
    {"smiles": "CC(C)(C)c1cc(C(=O)/C(C#N)=N/Nc2cccc(Br)c2)no1", "note": "[Compound 11, 2-(5-tert-Butylisoxazol-3-yl)-N′-(3-bromophenyl)-2-oxoacetohydrazonoyl Cyanide]", "values": [
      {"measurement": "fold increase in potency compared to nonsubstituted analogue 8", "setting": "EPAC2", "result": "3–4 fold"}
    ]},
    {"smiles": "CC(C)(C)c1cc(C(=O)/C(C#N)=N/Nc2ccccc2)no1", "note": "[Compound 8, 2-(5-tert-Butylisoxazol-3-yl)-N′-phenyl-2-oxoacetohydrazonoyl Cyanide]", "values": [
      {"measurement": "fold loss of EPAC2 binding affinity / inhibitory activity in comparison with 1", "setting": "EPAC2", "result": "~7", "unit": "fold"}
    ]},
    {"smiles": "CC(C)(C)c1cc(NC(=O)Nc2cccc(Cl)c2)no1", "note": "[Compound 54, 1-(5-tert-Butylisoxazol-3-yl)-3-(3-chlorophenyl)urea]", "values": [
      {"measurement": "EPAC2 binding activity in words", "setting": "EPAC2", "result": "entire loss of potency; also recorded: no significant activity"}
    ]}
  ]
}
